Biological target: human LTA4 hydrolase (Homo sapiens (Human), UniProt P09960)
Assay: LTA4H Enzyme assay (cleavage of Arg-AMC, fluorescence)
Assay type: biochemical
Conditions: LTA4H Enzyme 1 nM, Arg-AMC substrate 50 μM, room temperature 1 h
Experimental: The compounds of the invention are assessed for the ability to interact with human LTA4 hydrolase in an enzymatic assay that measures the ability of the enzyme to cleave the peptide bond of arginyl-aminomethylcoumarin (Arg-AMC). LTA4H Enzyme (1 nM final), Arg-AMC substrate (50 μM final), and compound are combined in a reaction buffer (50 mM Tris-HCl (pH 7.5), 100 mM KCl, 0.5% bovine serum albumin) at room temperature for 1 h. The formation of product is assessed by measuring the fluorescence of aminomethylcoumarin product (excitation wavelength 380 nm/emission wavelength 460 nm).

human LTA4 hydrolase, sequence (P09960 whole entry): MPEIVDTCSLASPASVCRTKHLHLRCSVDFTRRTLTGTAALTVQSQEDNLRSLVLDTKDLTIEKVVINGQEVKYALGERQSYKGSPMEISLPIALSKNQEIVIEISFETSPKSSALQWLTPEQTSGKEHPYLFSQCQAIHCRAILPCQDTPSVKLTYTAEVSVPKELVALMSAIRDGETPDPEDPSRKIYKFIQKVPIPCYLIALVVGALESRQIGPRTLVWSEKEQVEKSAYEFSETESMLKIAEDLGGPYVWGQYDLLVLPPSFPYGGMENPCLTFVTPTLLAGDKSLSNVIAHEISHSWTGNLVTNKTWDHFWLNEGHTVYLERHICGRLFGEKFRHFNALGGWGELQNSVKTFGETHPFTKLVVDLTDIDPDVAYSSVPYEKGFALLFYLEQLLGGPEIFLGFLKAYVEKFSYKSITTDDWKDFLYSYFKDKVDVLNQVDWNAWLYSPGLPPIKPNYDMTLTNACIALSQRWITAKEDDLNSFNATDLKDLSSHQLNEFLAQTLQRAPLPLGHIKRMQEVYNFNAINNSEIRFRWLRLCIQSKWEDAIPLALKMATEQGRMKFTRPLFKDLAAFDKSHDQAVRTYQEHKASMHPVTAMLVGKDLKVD

Row | Structure (SMILES) | IC50 [nM]
1 | c1ccc2c(c1)OCC(c1ccc(CN3CCn4cnnc4C3)cc1)O2 (racemic) [Example 16, 7-[4-(2,3-dihydro-1,4-benzodioxin-2-yl)benzyl]-5,6,7,8-tetrahydro[1,2,4]triazolo[4,3-a]pyrazine] | 2.32
2 | CNC(=O)C1CCN(Cc2ccc(C3COc4ccccc4O3)cc2)CC1 (racemic) [Example 25, 1-[4-(2,3-Dihydro-benzo[1,4]dioxin-2-yl)-benzyl]-piperidine-4-carboxylic acid methylamide] | 0.76
3 | Cn1cnc(CNCc2ccc(C3COc4ccccc4O3)cc2)c1 (racemic) [Example 55, 1-[4-(2,3-dihydro-1,4-benzodioxin-2-yl)phenyl]-N-[(1-methyl-1H-imidazol-4-yl)methyl]methanamine] | 3.63
4 | c1ccc2c(c1)OCC(c1ccc(CN3CCOCC3)cc1)O2 (centres unmarked) [Example 2, 4-[4-(2,3-dihydro-1,4-benzodioxin-2-yl)benzyl]morpholine] | 2.45
5 | CC1(C)CCN(Cc2ccc(C3COc4ccccc4O3)cc2)CC1 (centres unmarked) [Example 3, 1-[4-(2,3-dihydro-1,4-benzodioxin-2-yl)benzyl]-4,4-dimethylpiperidine] | 2.57
6 | FC1CCN(Cc2ccc(C3COc4ccccc4O3)cc2)CC1 (centres unmarked) [Example 5, 1-[4-(2,3-dihydro-1,4-benzodioxin-2-yl)benzyl]-4-fluoropiperidine] | 2.96
7 | O=S1(=O)CCN(Cc2ccc(C3COc4ccccc4O3)cc2)CC1 (centres unmarked) [Example 7, 4-[4-(2,3-dihydro-1,4-benzodioxin-2-yl)benzyl]thiomorpholine 1,1-dioxide] | 2.79
8 | CC(=O)N1CCN(Cc2ccc(C3COc4ccccc4O3)cc2)CC1 (centres unmarked) [Example 11, 1-{4-[4-(2,3-dihydro-1,4-benzodioxin-2-yl)benzyl]piperazin-1-yl}ethanone] | 2.95
9 | O=C(CNCc1ccc(C2COc3ccccc3O2)cc1)N1CCCC1 (centres unmarked) [Example 12, 2-{[4-(2,3-dihydro-1,4-benzodioxin-2-yl)benzyl]amino}-1-(pyrrolidin-1-yl)ethanone] | 10.2
10 | CC(C)(C)NCc1ccc(C2COc3ccccc3O2)cc1 (centres unmarked) [Example 23, N-[4-(2,3-dihydro-1,4-benzodioxin-2-yl)benzyl]-2-methylpropan-2-amine] | 5.2
11 | CC[C@@H](C)NCc1ccc(C2COc3ccccc3O2)cc1 (stereo partly drawn) [Example 24, (2R)-N-[4-(2,3-dihydro-1,4-benzodioxin-2-yl)benzyl]butan-2-amine] | 5.9
12 | CC(C)(O)C1CCN(Cc2ccc(C3COc4ccccc4O3)cc2)CC1 (centres unmarked) [Example 28, 2-{1-[4-(2,3-dihydro-1,4-benzodioxin-2-yl)benzyl]piperidin-4-yl}propan-2-ol] | 3.4
13 | OCCCC1CCN(Cc2ccc(C3COc4ccccc4O3)cc2)CC1 (centres unmarked) [Example 29, 3-{1-[4-(2,3-dihydro-1,4-benzodioxin-2-yl)benzyl]piperidin-4-yl}propan-1-ol] | 2.04
14 | CN1CCCN(Cc2ccc(C3COc4ccccc4O3)cc2)CC1 (centres unmarked) [Example 30, 1-[4-(2,3-dihydro-1,4-benzodioxin-2-yl)benzyl]-4-methyl-1,4-diazepane] | 1.77
15 | CC(=O)N1CCCN(Cc2ccc(C3COc4ccccc4O3)cc2)CC1 (centres unmarked) [Example 31, 1-{4-[4-(2,3-dihydro-1,4-benzodioxin-2-yl)benzyl]-1,4-diazepan-1-yl}ethanone] | 1.54
16 | c1ccc2c(c1)OCC(c1ccc(CN3CCCOCC3)cc1)O2 (centres unmarked) [Example 32, 4-[4-(2,3-dihydro-1,4-benzodioxin-2-yl)benzyl]-1,4-oxazepane] | 1.8
17 | COCCN(C)Cc1ccc(C2COc3ccccc3O2)cc1 (centres unmarked) [Example 33, N-[4-(2,3-dihydro-1,4-benzodioxin-2-yl)benzyl]-2-methoxy-N-methylethanamine] | 3.19
18 | O[C@@H]1CCN(Cc2ccc(C3COc4ccccc4O3)cc2)C1 (stereo partly drawn) [Example 34, (3R)-1-[4-(2,3-dihydro-1,4-benzodioxin-2-yl)benzyl]pyrrolidin-3-ol] | 1.89
19 | COC1CN(Cc2ccc(C3COc4ccccc4O3)cc2)C1 (centres unmarked) [Example 36, 1-[4-(2,3-dihydro-1,4-benzodioxin-2-yl)benzyl]-3-methoxyazetidine] | 4.45
20 | CS(=O)(=O)C1CCN(Cc2ccc(C3COc4ccccc4O3)cc2)CC1 (centres unmarked) [Example 39, 1-[4-(2,3-dihydro-1,4-benzodioxin-2-yl)benzyl]-4-(methylsulfonyl)piperidine] | 2.14
21 | c1ccc2c(c1)OCC(c1ccc(CNC3CCCC3)cc1)O2 (centres unmarked) [Example 41, N-[4-(2,3-dihydro-1,4-benzodioxin-2-yl)benzyl]cyclopentanamine] | 3.71
22 | c1ccc2c(c1)OCC(c1ccc(CNCC3CC3)cc1)O2 (centres unmarked) [Example 43, 1-cyclopropyl-N-[4-(2,3-dihydro-1,4-benzodioxin-2-yl)benzyl]methanamine] | 4.42
23 | N#CC1CN(Cc2ccc(C3COc4ccccc4O3)cc2)C1 (centres unmarked) [Example 46, 1-[4-(2,3-dihydro-1,4-benzodioxin-2-yl)benzyl]azetidine-3-carbonitrile] | 24.8
24 | COC1CCN(Cc2ccc(C3COc4ccccc4O3)cc2)C1 (centres unmarked) [Example 47, 1-[4-(2,3-dihydro-1,4-benzodioxin-2-yl)benzyl]-3-methoxypyrrolidine] | 1.73

Results, then the compound that gave them:

Row | IC50 [nM] | Structure (SMILES)
25 | 0.38 | c1ccc2c(c1)OCC(c1ccc(CN3CCCC3)cc1)O2 (racemic) [Example 1, 1-[4-(2,3-dihydro-1,4-benzodioxin-2-yl)benzyl]pyrrolidine]
26 | 1.49 | O[C@H]1CCN(Cc2ccc(C3COc4ccccc4O3)cc2)C1 (mixture of isomers) [Example 9, (3S)-1-[4-(2,3-dihydro-1,4-benzodioxin-2-yl)benzyl]pyrrolidin-3-ol]
27 | 0.75 | O=C1CCCN1CC1CCCN(Cc2ccc(C3COc4ccccc4O3)cc2)C1 (racemic) [Example 10, 1-({1-[4-(2,3-dihydro-1,4-benzodioxin-2-yl)benzyl]piperidin-3-yl}methyl)pyrrolidin-2-one]
28 | 0.36 | c1cnc2c(c1)OCC(c1ccc(CN3CCCC3)cc1)O2 (racemic) [Example 15, 3-[4-(pyrrolidin-1-ylmethyl)phenyl]-2,3-dihydro[1,4]dioxino[2,3-b]pyridine]
29 | 0.77 | O=S1(=O)CCN(Cc2ccc(C3COc4cccnc4O3)cc2)CC1 (racemic) [Example 17, 3-{4-[(1,1-dioxidothiomorpholin-4-yl)methyl]phenyl}-2,3-dihydro[1,4]dioxino[2,3-b]pyridine]
30 | 1.14 | c1cnc2c(c1)OCC(c1ccc(CN3CCOCC3)cc1)O2 (racemic) [Example 18, 3-[4-(morpholin-4-ylmethyl)phenyl]-2,3-dihydro[1,4]dioxino[2,3-b]pyridine]
31 | 0.43 | O=C(O)CCCC1CCN(Cc2ccc(C3COc4ccccc4O3)cc2)CC1 (racemic) [Example 26, 4-{1-[4-(2,3-dihydro-1,4-benzodioxin-2-yl)benzyl]piperidin-4-yl}butanoic acid]
32 | 1.05 | O=C(C1CCN(Cc2ccc(C3COc4ccccc4O3)cc2)CC1)N1CCOCC1 (racemic) [Example 37, {1-[4-(2,3-dihydro-1,4-benzodioxin-2-yl)benzyl]piperidin-4-yl}(morpholin-4-yl)methanone]
33 | 0.75 | O=C(NCCO)C1CCN(Cc2ccc(C3COc4ccccc4O3)cc2)CC1 (racemic) [Example 52, 1-[4-(2,3-dihydro-1,4-benzodioxin-2-yl)benzyl]-N-(2-hydroxyethyl)piperidine-4-carboxamide]
34 | 0.42 | NC(=O)NC1CCN(Cc2ccc(C3COc4ccccc4O3)cc2)CC1 (racemic) [Example 53, 1-{1-[4-(2,3-dihydro-1,4-benzodioxin-2-yl)benzyl]piperidin-4-yl}urea]
35 | 0.74 | O=C1NCCC12CCN(Cc1ccc(C3COc4ccccc4O3)cc1)CC2 (centres unmarked) [Example 4, 8-[4-(2,3-dihydro-1,4-benzodioxin-2-yl)benzyl]-2,8-diazaspiro[4.5]decan-1-one]
36 | 1.2 | OCC1CCN(Cc2ccc(C3COc4ccccc4O3)cc2)CC1 (centres unmarked) [Example 27, {1-[4-(2,3-dihydro-1,4-benzodioxin-2-yl)benzyl]piperidin-4-yl}methanol]
37 | 0.26 | O=C1NC(=O)C2(CCN(Cc3ccc(C4COc5ccccc5O4)cc3)CC2)N1 (centres unmarked) [Example 35, 8-[4-(2,3-dihydro-1,4-benzodioxin-2-yl)benzyl]-1,3,8-triazaspiro[4.5]decane-2,4-dione]
38 | 1.14 | CN(C)C(=O)CC1CCN(Cc2ccc(C3COc4ccccc4O3)cc2)CC1 (centres unmarked) [Example 38, 2-{1-[4-(2,3-dihydro-1,4-benzodioxin-2-yl)benzyl]piperidin-4-yl}-N,N-dimethylacetamide]
39 | 0.82 | c1ccc2c(c1)OCC(c1ccc(CN3CCCCCC3)cc1)O2 (centres unmarked) [Example 40, 1-[4-(2,3-dihydro-1,4-benzodioxin-2-yl)benzyl]azepane]
40 | 0.69 | CN(CCc1ccccn1)Cc1ccc(C2COc3ccccc3O2)cc1 (centres unmarked) [Example 42, N-[4-(2,3-dihydro-1,4-benzodioxin-2-yl)benzyl]-N-methyl-2-(pyridin-2-yl)ethanamine]
41 | 0.9 | CCN(CC)Cc1ccc(C2COc3ccccc3O2)cc1 (centres unmarked) [Example 45, N-[4-(2,3-dihydro-1,4-benzodioxin-2-yl)benzyl]-N-ethylethanamine]
42 | 0.16 | CS(=O)(=O)NC1CCN(Cc2ccc(C3COc4ccccc4O3)cc2)CC1 (stereo not drawn) [Example 48, N-{l-[4-(2,3-dihydro-1,4-benzodioxin-2-yl)benzyl]piperidin-4-yl}methanesulfonamide]
43 | 0.6 | O=C1CCCN1CC1CCN(Cc2ccc(C3COc4ccccc4O3)cc2)CC1 (centres unmarked) [Example 50, 1-({1-[4-(2,3-dihydro-1,4-benzodioxin-2-yl)benzyl]piperidin-4-yl}methyl)pyrrolidin-2-one]
44 | 0.82 | CN(C)C(=O)C1CCN(Cc2ccc(C3COc4ccccc4O3)cc2)CC1 (centres unmarked) [Example 51, 1-[4-(2,3-dihydro-1,4-benzodioxin-2-yl)benzyl]-N,N-dimethylpiperidine-4-carboxamide]

Source: patent US9662339B2, “Benzodioxane inhibitors of leukotriene production for combination therapy” (Boehringer Ingelheim International GmbH, priority 2012, dated 2017)
